{"source": "patent US10238676B2", "about": "“Application of ginsenoside RG3 in preparing medicine for preventing and/or treating dementia, and medicine for treating dementia” (priority 2013, dated 2019)", "key": {"[1]": {"test_system": "intracerebral cholinergic nerve system of rat model with Alzheimer's disease", "test": "AChE positive nerve fiber density of cortex and hippocampal formation, rat model with Alzheimer's disease (D-galactose + IBO)", "assay_type": "in vivo, Wistar rats", "conditions": "AD model rats, 6 weeks; for N Frontal lobe AchE positive nerve fiber density: Rg3 lotion (embodiment 7) on both sides of nose; for N Entorhinal cortex AchE positive nerve fiber density / N Occipital lobe AchE positive nerve fiber density / Parietal lobe AchE positive nerve fiber density / N Stratum lacunosum-moleculare AchE positive nerve fiber density / N Stratum moleculare of dentate gyrus AchE positive nerve fiber density / N Stratum oriens AchE positive nerve fiber density / N Stratum radiatum AchE positive nerve fiber density: Rg3 lotion topical; for N Stratum lacunosum-moleculare AchE positive nerve fiber density / N Stratum moleculare of dentate gyrus AchE positive nerve fiber density / N Stratum oriens AchE positive nerve fiber density / N Stratum radiatum AchE positive nerve fiber density: hippocampal formation", "source_text": "60 Wistar rats each of which having the body weight of 300-500 g are randomly divided into 6 groups, with 10 in each group, and the groups are named a preliminary elder normal control group, a preliminary elder AD model group, a positive medicine Huperzine A group, and high-dose, medium-dose and low-dose of Ginsenoside Rg3 topical preparation groups according to different treatment methods, respectively. The rats are bred in separate cages, each holding 4-5 rats, with natural lighting and random drinking and feeding provided. Physiological saline is injected in the abdominal cavity and grain of each rat in the preliminary elder normal control group; Galactose intraperitoneal injection and IBO intracerebral injection are given to all rats in the preliminary elder AD model group, the positive medicine Huperzine A group, and the high-dose, medium-dose and low-dose Ginsenoside Rg3 topical preparation groups; while the rats in the Huperzine A group and the high-dose, medium-dose and low-dose of Ginsenoside Rg3 topical preparation groups are subjected to D-galactose injection for modeling, rat of each group is given Huperzine A 0.3 mg/kg/d and Ginsenoside Rg3 10, 5, 2.5 mg/kg/d respectively. Ginsenoside Rg3 is applied to both sides of the nose of each rat of Ginsenoside Rg3 topical preparation groups. All the rats are subjected to the medicines continuously for 6 weeks and then intracerebral bilateral Meynert nuclei injection is carried out. Reference is made to a rat cerebral stereotaxic atlas for Meynert nuclei localization, and localization coordinates are AP-0.8 mm, Late 2.6 mm and DV 8.2 mm During intracerebral injection, a rat is anesthetized with 3% pentobarbital sodium (30 mg/kg) and then immobilized to a cerebral stereotaxic apparatus, physiological saline dissolved IBO (injection 1 μl for each side containing 5 μg of IBO) or 1 μl normal saline is injected slowly into a Meynert nucleus, each side takes injection for 5 minutes, and needle retaining for 10 minutes, wherein all the rats are subjected to cerebral perfusion with 4% paraformaldehyde after modeling and are then immobilized for 24 hours, and the brain is put in a sucrose phosphate buffer until brain tissue blocks sink, the blocks are frozen in a incubator and serially sectioned to […] in thickness. The sections are subjected to acetycholinesterase (AChE) histochemical staining by methods recommended by Hedreen, et al. Observation is given to the frontal lobe, the parietal lobe, the occipital lobe and the entorhinal cortex (layer II) as well as parts in a hippocampal CA1 region of the hippocampal formation such as a stratum oriens, a stratum radiatum, a stratum lacunosum-moleculare and a stratum moleculare of dentate gyrus for observing their AChE positive nerve fiber densities, and the AChE positive nerve fiber densities are counted with a number of intersections of positive fibers with a standard grid by using a micrometer used for a microscope.\nA significance level a is equal to 0.05."}, "[2]": {"test_system": "rat model with Alzheimer's disease", "test": "Channel-type water maze test, learning and memory of rat model with Alzheimer's disease", "assay_type": "in vivo, Wistar rats", "conditions": "AD model rats", "description": "Water maze pre-training is performed after feeding for 1 week under the stable condition of laboratory, 60 rats with similar body weights and good flexibility are selected, and are divided into 6 groups randomly, a normal control group, a sham operated control group, a model control group, and high-dose, medium-dose and low-dose ginsenoside Rg3 groups (10, 5, 2.5 mg/kg/d), wherein each group has 10 animals.\nThe molding method applying intraperitoneal injection of 0.96% D-galactose prepared by normal saline is applied to rats to make model rat, 5 mL/kg, once daily for 6 continuous weeks. The rat of sham operated control group are injected with equivalent normal saline. The rat groups of the model control group and high-dose, medium-dose and low-dose ginsenoside Rg3 groups are intracranially injected with IBO starting from the 43th day, and each side is slowly injected with 1 μL of IBO, the sham operated group's rats are injected with equivalent normal saline in the same encephalic region (for 4 continuous weeks). The normal control group's rat are without any processing and eat and drink normally. The rats of high-dose, medium-dose and low-dose ginsenoside Rg3 groups are administered intragastrically with ginsenoside Rg3 oral emulsion daily while molding, and are administered for 4 w (weeks) after molding.\nThe changes of animal behavioristics in each group are tested by channel-type water maze test, and the learning and memory abilities of rats are evaluated by number of entering blind ends and the time needed to reach the terminal. All test results are expressed in mean±standard deviation, and the intergroup difference is subjected to variance analysis by adopting SPSS10.0 statistical package."}, "[3]": {"test_system": "patients with Alzheimer's disease", "test": "Revised Hasegawa dementia scale (HDS-R) scoring of patients with Alzheimer's disease", "assay_type": "in vivo, human", "description": "Both groups take medicine for 12 continuous weeks. 2 ml of cerebrospinal fluid is collected by lumbar puncture, and is stored at −80° C., the β-amyloid protein (Aβ) content is determined by using enzyme-linked immunosorbent assay (ELISA). A revised Hasegawa dementia scale (HDS-R) is used to score, and the scores before and after treatment are compared, increasing in scores means validness, and unchanging or decreasing in scores means invalidness. The enumeration data adopts χ^2 test, the comparison of measurement data adopts t-test, all data is processed by adopting SPSS12.0 statistical software.\nAnalysis on the clinical therapeutic effect of the two groups."}, "[4]": {"conditions": "cited from earlier work"}, "[5]": {"conditions": "cited from earlier work", "remark": "listed apart in the source"}, "[6]": {"conditions": "Rg3 oral emulsion (embodiment 17) intragastric, 10 mg/kg/d"}, "[7]": {"conditions": "Rg3 oral emulsion intragastric, 2.5 mg/kg/d"}, "[8]": {"conditions": "Rg3 oral emulsion intragastric, 5 mg/kg/d"}, "[9]": {"conditions": "of 18 patients per group, 12 weeks"}}}
{"smiles": "CC(C)=CCC[C@](C)(O)[C@H]1CC[C@]2(C)[C@@H]1[C@H](O)C[C@@H]1[C@@]3(C)CC[C@H](O[C@@H]4O[C@H](CO)[C@@H](O)[C@H](O)[C@H]4O[C@@H]4O[C@H](CO)[C@@H](O)[C@H](O)[C@H]4O)C(C)(C)[C@@H]3CC[C@]12C", "note": "[Ginsenoside Rg3, 20(R)-ginsenoside Rg3]", "values": [{"measurement": "N Frontal lobe AchE positive nerve fiber density", "setting": "[1]; 2.5 mg/kg/d", "result": "122.7 ± 18.6^Δ 10^2 · mm^−2"}, {"measurement": "N Frontal lobe AchE positive nerve fiber density", "setting": "[1]; 5 mg/kg/d", "result": "130.7 ± 20.8^Δ 10^2 · mm^−2"}, {"measurement": "N Frontal lobe AchE positive nerve fiber density", "setting": "[1]; 10 mg/kg/d", "result": "143.7 ± 22.1^Δ 10^2 · mm^−2"}, {"measurement": "N Entorhinal cortex AchE positive nerve fiber density", "setting": "[1]; 2.5 mg/kg/d", "result": "130.2 ± 15.6 10^2 · mm^−2"}, {"measurement": "N Occipital lobe AchE positive nerve fiber density", "setting": "[1]; 2.5 mg/kg/d", "result": "145.2 ± 9.2^ΔΔ** 10^2 · mm^−2"}, {"measurement": "Parietal lobe AchE positive nerve fiber density", "setting": "[1]; 2.5 mg/kg/d", "result": "162.9 ± 22.0^#** 10^2 · mm^−2"}, {"measurement": "N Entorhinal cortex AchE positive nerve fiber density", "setting": "[1]; 5 mg/kg/d", "result": "142.6 ± 11.9 10^2 · mm^−2"}, {"measurement": "N Occipital lobe AchE positive nerve fiber density", "setting": "[1]; 5 mg/kg/d", "result": "160.2 ± 10.2^ΔΔ** 10^2 · mm^−2"}, {"measurement": "Parietal lobe AchE positive nerve fiber density", "setting": "[1]; 5 mg/kg/d", "result": "170.9 ± 21.2^#** 10^2 · mm^−2"}, {"measurement": "N Entorhinal cortex AchE positive nerve fiber density", "setting": "[1]; 10 mg/kg/d", "result": "161.1 ± 18.3^ΔΔ**° 10^2 · mm^−2"}, {"measurement": "N Occipital lobe AchE positive nerve fiber density", "setting": "[1]; 10 mg/kg/d", "result": "167.2 ± 12.9^ΔΔ**° 10^2 · mm^−2"}, {"measurement": "Parietal lobe AchE positive nerve fiber density", "setting": "[1]; 10 mg/kg/d", "result": "183.9 ± 24.9^#**° 10^2 · mm^−2"}, {"measurement": "N Stratum lacunosum-moleculare AchE positive nerve fiber density", "setting": "[1]; 2.5 mg/kg/d", "result": "77.2 ± 9.1^ΔΔ** 10^2 · mm^−2"}, {"measurement": "N Stratum moleculare of dentate gyrus AchE positive nerve fiber density", "setting": "[1]; 2.5 mg/kg/d", "result": "119.8 ± 12.4 10^2 · mm^−2"}, {"measurement": "N Stratum oriens AchE positive nerve fiber density", "setting": "[1]; 2.5 mg/kg/d", "result": "140.1 ± 20.5^Δ 10^2 · mm^−2"}, {"measurement": "N Stratum radiatum AchE positive nerve fiber density", "setting": "[1]; 2.5 mg/kg/d", "result": "122.4 ± 14.4^#** 10^2 · mm^−2"}, {"measurement": "N Stratum lacunosum-moleculare AchE positive nerve fiber density", "setting": "[1]; 5 mg/kg/d", "result": "84.2 ± 10.9^ΔΔ** 10^2 · mm^−2"}, {"measurement": "N Stratum moleculare of dentate gyrus AchE positive nerve fiber density", "setting": "[1]; 5 mg/kg/d", "result": "131.5 ± 14.7 10^2 · mm^−2"}, {"measurement": "N Stratum oriens AchE positive nerve fiber density", "setting": "[1]; 5 mg/kg/d", "result": "153.0 ± 22.1^Δ 10^2 · mm^−2"}, {"measurement": "N Stratum radiatum AchE positive nerve fiber density", "setting": "[1]; 5 mg/kg/d", "result": "135.1 ± 23.9^#** 10^2 · mm^−2"}, {"measurement": "N Stratum lacunosum-moleculare AchE positive nerve fiber density", "setting": "[1]; 10 mg/kg/d", "result": "99.2 ± 17.3^Δ 10^2 · mm^−2"}, {"measurement": "N Stratum moleculare of dentate gyrus AchE positive nerve fiber density", "setting": "[1]; 10 mg/kg/d", "result": "142.7 ± 11.9 10^2 · mm^−2"}, {"measurement": "N Stratum oriens AchE positive nerve fiber density", "setting": "[1]; 10 mg/kg/d", "result": "171.1 ± 16.9^Δ 10^2 · mm^−2"}, {"measurement": "N Stratum radiatum AchE positive nerve fiber density", "setting": "[1]; 10 mg/kg/d", "result": "143.2 ± 20.5^ΔΔ 10^2 · mm^−2"}, {"measurement": "Error times", "setting": "[2]; [6]", "result": "1.01 ± 0.41", "unit": "time"}, {"measurement": "Swimming out time", "setting": "[2]; [6]", "result": "12.26 ± 3.26", "unit": "s"}, {"measurement": "Error times", "setting": "[2]; [7]", "result": "1.82 ± 0.43", "unit": "time"}, {"measurement": "Swimming out time", "setting": "[2]; [7]", "result": "32.26 ± 3.21", "unit": "s"}, {"measurement": "Error times", "setting": "[2]; [8]", "result": "1.10 ± 0.44", "unit": "time"}, {"measurement": "Swimming out time", "setting": "[2]; [8]", "result": "19.26 ± 3.23", "unit": "s"}, {"measurement": "effective rate (patients increased in HDS-R scores)", "setting": "[3]; 18 AD patients per group, Rg3 oral liquid 10 mg/d or donepezil 5 mg/d, 12 weeks", "result": 77.8, "unit": "%"}, {"measurement": "Scores of clinical symptom (HDS-R), post treatment", "setting": "[3]; AD inpatients, n = 18, Rg3 oral liquid 10 mg/d or donepezil 5 mg/d orally, 12 weeks", "result": "18.7 ± 8.1^#Δ"}, {"measurement": "Scores of clinical symptom (HDS-R), before treatment", "setting": "[3]; AD inpatients, n = 18 per group, baseline", "result": "12.3 ± 5.2"}, {"measurement": "number of patients constant in scores", "setting": "[3]; [9]", "result": 3}, {"measurement": "number of patients decreased in scores", "setting": "[3]; [9]", "result": 1}, {"measurement": "number of patients increased in scores of clinical symptom", "setting": "[3]; [9]", "result": 14}, {"measurement": "medicine in native form not absorbed and excreted through feces", "setting": "[4]; animal pharmacokinetic experiments, oral preparations", "result": "about 80%"}, {"measurement": "oral absorption percentage", "setting": "[4]; oral", "result": "about 10.28%"}, {"measurement": "lipid solubility and water solubility", "setting": "[5]", "result": "relatively poor"}]}
